The values below come from US9585382B2, “Composition comprising a pesticide and an acetal solvent” (priority 2011, dated 2017).

Series [1] in a line: Flash point (DIN 53213-1). The series is classed as physicochemical. The conditions noted are these: measured as specified in DIN 53213-1.
For series [2] the following is noted: EU directive 67/548/EEC, 1999/45/EC or 88/379/EEC; cited from earlier work.
The procedure of series [3]:
The solubility of benzaldehyde dimethyl acetal or p-anisaldehyde dimethyl acetal in water at 20° C. was analyzed.

Series [4] can be described thus: Viscosity. The format is physicochemical. As to conditions: 20° C.
The nature of series [5]: physchem. The conditions noted are these: for solubility: 20 °C, organic solvent or mixture. The protocol:
A) Pyraclostrobin was added at 20° C. to benzaldehyde dimethyl acetal or p-anisaldehyde dimethyl acetal, with stirring.

Converted amounts (≈) assume the structure as drawn.

In series [1], `COC(OC)c1ccccc1` [Benzaldehyde dimethyl acetal, reference compound] had a flash point of 69 °C. In addition, in series [2], the “EU R phrase” value is “R22—harmful if swallowed” and the EU hazard classification entry is given as “Xn—harmful”.

Compound `COc1ccc(C(OC)OC)cc1` [p-Anisaldehyde dimethyl acetal] came in with a solubility in water in series [3] not above 0.1 % by weight. For the same compound, the flash point in series [1] was determined as 114 °C. In series [2], the “EU R phrase” value is “without R phrase” and the EU hazard classification entry is “without classification”. Further, in series [4], the viscosity came to 5.5 mPas.

On to `C#CCN1C(=O)C(F)(F)Oc2cc(F)c(-n3c(=O)n(C)c(=S)n(C)c3=O)cc21` [1,5-dimethyl-6-thioxo-3-(2,2,7-trifluoro-3-oxo-4-(prop-2-ynyl)-3,4-dihydro-2H-benzo[b][1,4]oxazin-6-yl)-1,3,5-triazinan-2,4-dione], for which the figures for the solubility in series [5] (maximum solubility in Solvesso 150 ND), in series [5] (maximum solubility in Solvesso 200 ND) and in series [5] (maximum solubility in p-anisaldehyde dimethyl acetal) were 19 mg/mL (≈ 46.1 mM), 63 mg/mL (≈ 153 mM) and 214 mg/mL (≈ 519 mM), respectively.

For the compound `COC(=O)N(OC)c1ccccc1COc1ccn(-c2ccc(Cl)cc2)n1` [Pyraclostrobin, reference compound], the “solubility in benzaldehyde dimethyl acetal” value in series [5] (20° C., with stirring, solvent benzaldehyde dimethyl acetal (not inventive)) is on record as “at least 50 % by weight”. For the same compound, in series [5] (20° C., with stirring, solvent p-anisaldehyde dimethyl acetal), the “solubility in p-anisaldehyde dimethyl acetal” value is listed as “at least 50 % by weight”.
